Legend:
[1] = tested on: CCRF-CEM; assay: cells; format: cell-based; details: Homo sapiens, 10 μM, read-out: growth inhibition % (GI%)
[2] = tested on: HL-60(TB); assay: cells; format: cell-based; details: Homo sapiens; HL-60(TB); 10 μM; read-out: growth inhibition % (GI%)
[3] = tested on: MOLT-4; assay: cells; format: cell-based; details: Homo sapiens; MOLT-4; 10 μM; read-out: growth inhibition % (GI%)
[4] = tested on: A549/ATCC; assay: cells; format: cell-based; details: Homo sapiens; A549/ATCC; 10 μM; read-out: growth inhibition % (GI%)
[5] = tested on: EKVX; assay: cells; format: cell-based; details: Homo sapiens, 10 μM, read-out: growth inhibition % (GI%)
[6] = tested on: HOP-62; assay: cells; format: cell-based; details: Homo sapiens; HOP-62; 10 μM; read-out: growth inhibition % (GI%)
[7] = tested on: HOP-92; assay: cells; format: cell-based; details: Homo sapiens; HOP-92; 10 μM; read-out: growth inhibition % (GI%)
[8] = tested on: NCI-H226; assay: cells; format: cell-based; details: Homo sapiens; NCI-H226; 10 μM; read-out: growth inhibition % (GI%)
[9] = tested on: NCI-H322M; assay: cells; format: cell-based; details: Homo sapiens, 10 μM, read-out: growth inhibition % (GI%)
[10] = tested on: NCI-H460; assay: cells; format: cell-based; details: Homo sapiens; NCI-H460; 10 μM; read-out: growth inhibition % (GI%)
[11] = tested on: NCI-H522; assay: cells; format: cell-based; details: Homo sapiens; NCI-H522; 10 μM; read-out: growth inhibition % (GI%)
[12] = tested on: COLO-205; assay: cells; format: cell-based; details: Homo sapiens; COLO-205; 10 μM; read-out: growth inhibition % (GI%)
[13] = tested on: HCC-2998; assay: cells; format: cell-based; details: Homo sapiens; HCC-2998; 10 μM; read-out: growth inhibition % (GI%)
[14] = tested on: HCT-116; assay: cells; format: cell-based; details: Homo sapiens; HCT-116; 10 μM; read-out: growth inhibition % (GI%)
[15] = tested on: HCT-15; assay: cells; format: cell-based; details: Homo sapiens; HCT-15; 10 μM; read-out: growth inhibition % (GI%)
[16] = tested on: KM12; assay: cells; format: cell-based; details: Homo sapiens; KM12; 10 μM; read-out: growth inhibition % (GI%)
[17] = tested on: SF-268; assay: cells; format: cell-based; details: Homo sapiens; SF-268; 10 μM; read-out: growth inhibition % (GI%)
[18] = tested on: SF-295; assay: cells; format: cell-based; details: Homo sapiens; SF-295; 10 μM; read-out: growth inhibition % (GI%)
[19] = tested on: SF-539; assay: cells; format: cell-based; details: Homo sapiens; SF-539; 10 μM; read-out: growth inhibition % (GI%)
[20] = tested on: SNB-19; assay: cells; format: cell-based; details: Homo sapiens; SNB-19; 10 μM; read-out: growth inhibition % (GI%)
[21] = tested on: SNB-75; assay: cells; format: cell-based; details: Homo sapiens; SNB-75; 10 μM; read-out: growth inhibition % (GI%)
[22] = tested on: U251; assay: cells; format: cell-based; details: Homo sapiens, U-251; U251; 10 μM; read-out: growth inhibition % (GI%)
[23] = tested on: LOX IMIV; assay: cells; format: cell-based; details: Homo sapiens, 60 cell; LOX IMIV; 10 μM; read-out: growth inhibition % (GI%)
[24] = tested on: MALME-3M; assay: cells; format: cell-based; details: Homo sapiens; MALME-3M; 10 μM; read-out: growth inhibition % (GI%)
[25] = tested on: SK-MEL-2; assay: cells; format: cell-based; details: Homo sapiens; SK-MEL-2; 10 μM; read-out: growth inhibition % (GI%)
[26] = tested on: SK-MEL-5; assay: cells; format: cell-based; details: Homo sapiens; SK-MEL-5; 10 μM; read-out: growth inhibition % (GI%)
[27] = tested on: UACC-257; assay: cells; format: cell-based; details: Homo sapiens; UACC-257; 10 μM; read-out: growth inhibition % (GI%)
[28] = tested on: IGROV1; assay: cells; format: cell-based; details: Homo sapiens, IGROV-1; IGROV1; 10 μM; read-out: growth inhibition % (GI%)
[29] = tested on: OVCAR-4; assay: cells; format: cell-based; details: Homo sapiens; OVCAR-4; 10 μM; read-out: growth inhibition % (GI%)
[30] = tested on: OVCAR-5; assay: cells; format: cell-based; details: Homo sapiens; OVCAR-5; 10 μM; read-out: growth inhibition % (GI%)
[31] = tested on: OVCAR-8; assay: cells; format: cell-based; details: Homo sapiens; OVCAR-8; 10 μM; read-out: growth inhibition % (GI%)
[32] = tested on: NCI/ADR-RES; assay: cells; format: cell-based; details: Homo sapiens, 10 μM, read-out: growth inhibition % (GI%)
[33] = tested on: SK-OV-3; assay: cells; format: cell-based; details: Homo sapiens; SK-OV-3; 10 μM; read-out: growth inhibition % (GI%)
[34] = tested on: 786-0; assay: cells; format: cell-based; details: Homo sapiens; 786-0; 10 μM; read-out: growth inhibition % (GI%)
[35] = tested on: A498; assay: cells; format: cell-based; details: Homo sapiens; A498; 10 μM; read-out: growth inhibition % (GI%)
[36] = tested on: ACHN; assay: cells; format: cell-based; details: Homo sapiens, 10 μM, read-out: growth inhibition % (GI%)
[37] = tested on: SN12C; assay: cells; format: cell-based; details: Homo sapiens, 10 μM, read-out: growth inhibition % (GI%)
[38] = tested on: TK-10; assay: cells; format: cell-based; details: Homo sapiens; TK-10; 10 μM; read-out: growth inhibition % (GI%)
[39] = tested on: PC-3; assay: cells; format: cell-based; details: Homo sapiens; PC-3; 10 μM; read-out: growth inhibition % (GI%)
[40] = tested on: DU-145; assay: cells; format: cell-based; details: Homo sapiens; DU-145; 10 μM; read-out: growth inhibition % (GI%)
[41] = tested on: MCF7; assay: cells; format: cell-based; details: Homo sapiens; MCF7; 10 μM; read-out: growth inhibition % (GI%)
[42] = tested on: BT-549; assay: cells; format: cell-based; details: Homo sapiens; BT-549; 10 μM; read-out: growth inhibition % (GI%)
[43] = tested on: T-47D; assay: cells; format: cell-based; details: Homo sapiens, T47D; T-47D; 10 μM; read-out: growth inhibition % (GI%)
[44] = tested on: panel of 60 tumour cell lines; assay: NCI 60 cell line antiproliferative screening (SRB), whole panel or subpanels (means, ranges, words); format: cell-based, human; details: for inhibition at 10 µM: Homo sapiens, 60 cell, mean over the cell line panel, read-out: Mean growth inhibition % (mean GI%)
[45] = tested on: MDA-MB-468; assay: NCI 60 cell line antiproliferative screening (SRB), Breast cancer; details: Homo sapiens, MDA-MB-468, read-out: growth inhibition % (GI%)
[46] = tested on: OVCAR-3; assay: NCI 60 cell line antiproliferative screening (SRB), Ovarian cancer; details: Homo sapiens, OVCAR-3, read-out: growth inhibition % (GI%)

`O=C(CSc1nc2ccccc2c(=O)n1-c1ccccc1)NN=Cc1ccc(N2CCCCC2)cc1` [6g, 2-((4-oxo-3-phenyl-3,4-dihydroquinazolin-2-yl)thio)-N'-(4-(piperidin-1-yl)benzylidene) acetohydrazide] gave an inhibition at 10 µM [1] of under 15%, an inhibition at 10 µM [2] of under 15% and an inhibition at 10 µM [3] of 28.5%. For the same molecule, the inhibition at 10 µM [4] was 15.1%, the inhibition at 10 µM [5] was 20.4% and the inhibition at 10 µM [6] was under 15%. It also gave an inhibition at 10 µM [7] of 19.5%, an inhibition at 10 µM [8] of under 15% and an inhibition at 10 µM [9] of under 15%. For the same molecule, the inhibition at 10 µM [10] was under 15%, the inhibition at 10 µM [11] was 15.3% and the inhibition at 10 µM [12] was under 15%. The inhibition at 10 µM [13] was under 15%, the inhibition at 10 µM [14] was 15.5% and the inhibition at 10 µM [15] was 16.2%. For the same molecule, the inhibition at 10 µM [16] was under 15%, the inhibition at 10 µM [17] was under 15% and the inhibition at 10 µM [18] was under 15%. The inhibition at 10 µM [19] was under 15%, the inhibition at 10 µM [20] was under 15% and the inhibition at 10 µM [21] was 19.9%. The inhibition at 10 µM [22] was under 15%, the inhibition at 10 µM [23] was under 15% and the inhibition at 10 µM [24] was under 15%. It also gave an inhibition at 10 µM [25] of under 15%, an inhibition at 10 µM [26] of under 15% and an inhibition at 10 µM [27] of under 15%. The inhibition at 10 µM [28] was under 15%, the inhibition at 10 µM [29] was under 15% and the inhibition at 10 µM [30] was under 15%. The inhibition at 10 µM [31] was under 15%, the inhibition at 10 µM [32] was under 15% and the inhibition at 10 µM [33] was under 15%. For the same molecule, the inhibition at 10 µM [34] was under 15%, the inhibition at 10 µM [35] was under 15% and the inhibition at 10 µM [36] was under 15%. For the same molecule, the inhibition at 10 µM [37] was under 15%, the inhibition at 10 µM [38] was under 15% and the inhibition at 10 µM [39] was 18.5%. It also gave an inhibition at 10 µM [40] of under 15%, an inhibition at 10 µM [41] of 16.2% and an inhibition at 10 µM [42] of under 15%. For the same molecule, the inhibition at 10 µM [43] was under 15%, the inhibition at 10 µM [44] was 4.28% and the inhibition at 10 µM [45] was under 15%. It also gave an inhibition at 10 µM [46] of under 15%.

With `O=C(CSc1nc2ccccc2c(=O)n1-c1ccccc1)NN=Cc1ccc(N2CCOCC2)cc1` [6h, N'-(4-morpholinobenzylidene)-2-((4-oxo-3-phenyl-3,4-dihydroquinazolin-2-yl)thio)acetohydrazide] the inhibition at 10 µM [1] was under 15%, the inhibition at 10 µM [2] was under 15% and the inhibition at 10 µM [3] was under 15%. It also gave an inhibition at 10 µM [4] of under 15%, an inhibition at 10 µM [5] of under 15% and an inhibition at 10 µM [6] of under 15%. For the same molecule, the inhibition at 10 µM [7] was 18.7%, the inhibition at 10 µM [8] was under 15% and the inhibition at 10 µM [9] was under 15%. It also gave an inhibition at 10 µM [10] of under 15%, an inhibition at 10 µM [11] of under 15% and an inhibition at 10 µM [12] of under 15%. The inhibition at 10 µM [13] was under 15%, the inhibition at 10 µM [14] was under 15% and the inhibition at 10 µM [15] was under 15%. The inhibition at 10 µM [16] was under 15%, the inhibition at 10 µM [17] was under 15% and the inhibition at 10 µM [18] was under 15%. The inhibition at 10 µM [19] was under 15%, the inhibition at 10 µM [20] was under 15% and the inhibition at 10 µM [21] was under 15%. The inhibition at 10 µM [22] was under 15%, the inhibition at 10 µM [23] was under 15% and the inhibition at 10 µM [24] was under 15%. For the same molecule, the inhibition at 10 µM [25] was under 15%, the inhibition at 10 µM [26] was under 15% and the inhibition at 10 µM [27] was under 15%. For the same molecule, the inhibition at 10 µM [28] was under 15%, the inhibition at 10 µM [29] was under 15% and the inhibition at 10 µM [30] was under 15%. The inhibition at 10 µM [31] was under 15%, the inhibition at 10 µM [32] was under 15% and the inhibition at 10 µM [33] was under 15%. For the same molecule, the inhibition at 10 µM [34] was under 15%, the inhibition at 10 µM [35] was 15.8% and the inhibition at 10 µM [36] was under 15%. It also gave an inhibition at 10 µM [37] of under 15%, an inhibition at 10 µM [38] of under 15% and an inhibition at 10 µM [39] of under 15%. It also gave an inhibition at 10 µM [40] of under 15%, an inhibition at 10 µM [41] of under 15% and an inhibition at 10 µM [42] of under 15%. For the same molecule, the inhibition at 10 µM [43] was under 15%, the “antiproliferative activity against all tested cell lines” value ([44]; 10 μM single dose) was “did not show activity” and the inhibition at 10 µM [44] was under 0%. For the same molecule, the inhibition at 10 µM [45] was under 15% and the inhibition at 10 µM [46] was under 15%.

Reference: publication PMC9518264, “Design and synthesis of novel quinazolinone-based derivatives as EGFR inhibitors with antitumor activity” (Journal of Enzyme Inhibition and Medicinal Chemistry, 2022)
